For test [1], the system named is Bacillus subtilis oxalate decarboxylase (OxDc). The conditions noted are these: even under a condition of an ideal pH value; read-out: Kin value; cited from earlier work.
For test [2], the target named is Agrocybe aegerita glycosylated oxalate decarboxylase (OxDc), naturally expressed by acid induction. In words: Determination of Km of Agrocybe aegerita oxalate decarboxylase by double reciprocal method; oxalate degradation by HPLC, 37° C. Format: biochemical. As for the experimental part: In this invention, high performance liquid chromatography (HPLC) is used to determine the activity of oxalate decarboxylase. The operation process is as follows: preheating 1.0 mL 5 mM (mmol/L) oxalate solution (25 mM citrate buffer solution contained, pH 3.0) at 37° C. for 10 min and adding 0.01-0.1 ml (added volume is adjusted according to enzyme concentration) solution containing oxalate decarboxylase or fungus powder suspension into the oxalate solution for reaction; adding 50 μL 2.5M (molar concentration) H2SO4 to inactivate the enzyme after reacting for 30 minutes; quickly centrifuging the reaction solution and collecting supernatant to determine the concentration of residual oxalate by using HPLC. One enzyme activity unit (U) is defined as the required enzyme amount to degrade 1 micromole oxalate per minute on this condition.
The enzyme activity of the purified glycosylated oxalate decarboxylase obtained in Embodiment 2 was determined at pH 3.0, and the result is shown in Table 1. […] Different enzyme batches show the Kin value between 0.03 and 1.0 mM at different pH (pH 2.5-6.0), and the average Kin value at optimal pH range of pH 2.5-3.0 is 0.06 mM, as is shown in Table 2.

For `O=C(O)C(=O)O` [oxalate], the Km in test [1] is 4000 µM; in test [2] (pH 3.0-3.5), 120 ± 40 µM; in test [2] (pH 3.5-4.0), 200 ± 30 µM; in test [2] (pH 4.0-4.5) it was 250 ± 80 µM; in test [2] (pH 4.5-5.0), 360 ± 130 µM; in test [2] (pH 5.0-6.0), 700 ± 300 µM. Besides, the “Kin value (average at optimal pH)” value in test [2] (optimal pH range pH 2.5-3.0) was 0.06 mM.

Source of the values: patent US11085033B2, “Glycosylated oxalate decarboxylase and preparation and application thereof” (WUHAN KANGFUDE BIOTECHNOLOGY CO., LTD., priority 2016, dated 2021).
